From patent US20220023317A1, “PREVENTING OR MITIGATING CHEMOTHERAPY INDUCED ALOPECIA USING VITAMIN D” (Berg LLC, priority 2013, published 2022)

Experiments:
SKMEL-28 = experiment: Cell growth / viability assay; assay type: cell-based
PaCa2 = experiment: Cell growth / viability assay; assay type: cell-based
MCF-7 = experiment: Cell growth / viability assay; assay type: cell-based
HEKa cells = experiment: Protection of HEKa cells by calcitriol against chemotherapeutic drugs; assay type: cell-based, human
Procedure: These include: erlotinib (Tarceva), an EGFR Tyr kinase inhibitor; gefutubib (Iressa), an EGFR Tyr kinase inhibitor; sorafenib, inhibitor of several Tyr kinases (Raf, VEGF-R2, c-kit, PDGR-R); Dasatinib, a BCR/ABL Tyr kinase inhibitor; and staurosporin, a relatively nonspecific kinase inhibitor.
The drug treatment period was usually three days. At the end of the three days, the background OD of the 96-well plate was read at 280 nm, before 20 μL of the “Substrate Cell Titer 96 Aqueous One Solution Reagent” (Promega) was added to each well. The plate was returned to the 37° C. incubator, and its OD at 490 nm was read each hour until an OD of approximately 1.5 was reached. The net OD increase was calculated by subtracting the pre-substrate OD reading.
The impact of the drug on the cells was calculated by comparing the OD at different concentrations in relation to the OD of the control wells (without the drug).

[1] = tested on: MIAC51 (chloroleukemia cells); experiment: Rats transplanted with chloroleukemia MIAC51, CTX with topical calcitriol; assay type: in vivo, rat; settings: cyclophosphamide, preliminary results
Procedure: For experiments in which rats were transplanted with chloroleukemia, on Day 5 after birth, rats were randomly divided into three groups of 45 each. All rats received 1×10^5 chloroleukemic cell line MIAC51 (i.p.) in 0.1 mL of serum free (SF) RPMI. MIAC51 were cultured in RPMI 1640 supplemented with L-glutamine and 10% fetal bovine serum at 37° C. in a 5% CO2, 100% humidity incubator. Cells were grown to 50% confluency (1.5×106 mL) collected in 50 mL conical tubes, centrifuged at 600 g×10 min. at room temperature and resuspended in SF-RPMI at a concentration of 1×10^6/mL. Group 1 rats received no further treatment. Group 2 rats received topical vehicle and CTX on day 13. […] Topical applications were performed as described above.
On day 23 after birth, a sample of blood was taken from all rats and differentials performed. Rats with leukemia were sacrificed, rats without leukemia were kept and a second differential performed on day 31, at any point if leukemia was detected, animals were sacrificed by CO2 asphyxiation.

MIAC51 = experiment: Cure / survival rate of chloroleukemic rats after chemotherapy; assay type: in vivo, rat; settings: for Cured (number of rats): of 40
Procedure: On day 5 after birth all rats received 1×105 MIAC51 intraperitoneally in 0.1 mL of serum free (SF) RPMI. MIAC51 were cultured in RPMI 1640 supplemented with L-glutamine and 10% fetal bovine serum at […] in a 5% CO2, 100% humidity incubator. Cells were grown to 50% confluency (1.5×106 mL) collected in 50 mL conical tubes, centrifuged at 600 g for 10 minutes at room temperature and resuspended in SF-RPMI at a concentration of 1×10^6/mL prior to injection.

Sprague Dawley rats = experiment: Neonatal rat model of CIA, 1,25(OH)2D3 in ethanol; assay type: in vivo; settings: 0.2 μg in 150 μL ethanol topical, days 5-10; CTX 35 mg/kg; all 10 animals
Excerpt: Neonatal Rat model and PCA model. Sprague Dawley rats were purchased from Charles River Laboratories (Wilmington, Mass.). C3H/HeJ mouse were purchased from Jackson Laboratories (Bar Harbour, Me.).Rodents were housed and fed according to NIH guidelines. For experiments involving chemotherapy, cyclophosphamide was purchased from Mead Johnson (Evansville, Ind.) and Etoposide was obtained from Bristol-Myers (Evansville, Ind.). 1,25(OH)2D3 powder was a gift from Dr. Uskokovic (Hoffman-La Roche, Nutley, N.J.). For experiments involving C3H/HeJ mice, 1,25(OH)2D3 was purchased from Sigma (St. Louis, Mo.). Topical application of 1,25(OH)2D3. 1,25(OH)2D3 was dissolved in absolute ethanol and applied topically with an applicator. Control animals were similarly treated with vehicle only. […] For CIA experiments, 1,25(OH)2D3 was given daily beginning on day 5 after birth and ending on day 10. […] For CIA and PCA, the experimental group was treated with 0.2 μg of 1,25(OH)2D3 in 150 μL of absolute ethanol applied topically over the head and neck. In both instances, the control group received ethanol vehicle only. Cyclophosphamide (35 mg/kg) was given intraperitoneally for one day only. […] Both chemotherapies were started at 11 days of age. Alopecia was recorded on the tenth day after the first dose of chemotherapy.

[2] = tested on: Sprague-Dawley or Long Evans rats; experiment: Second CIA study, calcitriol 1, 2 or 3 μg/mL; assay type: in vivo, rat
Procedure: CIA was administered topically at concentrations of 1, 2, or 3 μg/mL on Days 5 to 10 followed by administration of various chemotherapeutic agents (etoposide; cyclophosphamide; doxorubicin and cyclophosphamide; cytosine beta-D arabinofurosamine; cytosine beta-D arabinofurosamine and doxorubicin; and paclitaxel).

[3] = 0.1 μg/mL calcitriol supplement
[4] = 0.1 μg/mL calcitriol for two passages
[5] = ADM + paclitaxel + etoposide, after two rounds
[6] = CTX + ADM + ARA-C, after two rounds
[7] = CTX + paclitaxel + etoposide, after two rounds
[8] = CTX, after two rounds of chemotherapy

C=C1/C(=C\C=C2/CCC[C@]3(C)[C@@H]([C@H](C)CCCC(C)(C)O)CC[C@@H]23)C[C@@H](O)C[C@@H]1O [Calcitriol, (1a.3B.5Z.7E)-9,10-secocholesta-5,7,10(19)-triene-1,3,25-triol] was tested, and the “effect of calcitriol on cell growth” value (SKMEL-28) was “no significant growth promoting or growth inhibiting effects”, the “effect of calcitriol on cytotoxic effect of Doxorubicin” value (from here on “effect of calcitriol … of Doxorubicin”) (SKMEL-28) was “did not appear to appreciably alter” and the “5-FU ED50 curve with vs without calcitriol” value (SKMEL-28; [3]) was “not significantly different”. The “effect of calcitriol on cell growth” value (PaCa2) was “no significant growth promoting or growth inhibiting effects”, the “effect of calcitriol … of Doxorubicin” value (PaCa2) was “did not appear to appreciably alter” and the “response to doxorubicin, cisplatin, erlotinib after calcitriol exposure” value (PaCa2; [4]) was “did not alter”. For the same molecule, the “5-FU ED50 curve with vs without calcitriol” value (PaCa2; [3]) was “not significantly different”, the “effect of calcitriol … of Doxorubicin” value (MCF-7) was “did not appear to appreciably alter” and the “response to doxorubicin, cisplatin, erlotinib after calcitriol exposure” value (MCF-7; [4]) was “did not alter”. For the same molecule, the “concentrations giving growth inhibition” value (MCF-7; high concentrations) was over 0.5 µg/mL, the “concentrations giving growth stimulation” value (MCF-7; low concentrations) was 0.05 to 0.25 µg/mL and the “protective effect against 5-FU” value (HEKa cells; 0.1 μg/mL calcitriol) was “mild protective effect”. The “protective effect against doxorubicin” value (HEKa cells; 0.1 μg/mL calcitriol) was “did not appear to provide a significant protective effect”, the “protective effect against gemcitabine” value (HEKa cells; 0.1 μg/mL calcitriol) was “mild protective effect” and the “protective effect against irinotecan” value (HEKa cells; 0.1 μg/mL calcitriol) was “positive protective effect”. The “protective effect against paclitaxel” value (HEKa cells; 0.1 μg/mL calcitriol) was “some protective effects”, the “protective effect against tamoxifen” value (HEKa cells; 0.1 μg/mL calcitriol) was “weak” and the “interaction (synergy) between calcitriol and drugs tested” value (HEKa cells; 0.1 μg/mL calcitriol premixed with 15 drugs, three days) was “no interaction”. The “protection against alkylating agents cisplatin and carboplatin” value (HEKa cells; 0.1 μg/mL calcitriol, low dosage levels) was “moderate level of protection”, the “protective effect against kinase inhibitor drugs” value (HEKa cells; 0.1 μg/mL calcitriol, erlotinib, gefitinib, sorafenib, dasatinib, staurosporin at low drug dosage) was “provided certain growth stimulation and protected the HEKa cells” and the “protection of the cancer cells from chemotherapy” value [1] was “have not shown protection of the cancer cells”. The “% cured / survival rate” value (MIAC51; [5]) was 80%, the “Cured (number of rats)” value (MIAC51; [5]) was 32 and the “% cured / survival rate” value (MIAC51; [6]) was 78%. The “Cured (number of rats)” value (MIAC51; [6]) was 31, the “% cured / survival rate” value (MIAC51; CTX + ADM, after two rounds) was 50% and the “Cured (number of rats)” value (MIAC51; CTX + ADM, after two rounds) was 20. For the same molecule, the “% cured / survival rate” value (MIAC51; [7]) was 83%, the “Cured (number of rats)” value (MIAC51; [7]) was 33 and the “% cured / survival rate” value (MIAC51; [8]) was 25%. For the same molecule, the “Cured (number of rats)” value (MIAC51; [8]) was 10, the “effect on efficacy of the chemotherapy agents” value (MIAC51; calcitriol 2 μg/mL) was “did not affect the efficacy of the chemotherapy agents” and the “protection from cyclophosphamide-induced alopecia” value (Sprague Dawley rats) was “did not develop alopecia”. For the same molecule, the “extent of hair growth” value ([2]; 1 μg/mL) was “hair growth was limited to the treated area”, the “extent of hair growth” value ([2]; 3 μg/mL) was “hair growth was also observed on the dorsal region” and the “protection against CIA” value ([2]; 1 to 3 μg/mL applied for 6 hours, all chemotherapeutic agents tested) was 100%. For the same molecule, the “effect on cure rate with cyclophosphamide” value ([2]; chloroleukemia induced with MIAC51) was “did not affect the cure rate”, the “protection from CIA, 6-hour exposure” value ([2]; topical, Days 5 to 10) was “complete protection” and the “protection from CIA, 1.5 hour exposure” value ([2]; topical, Days 5 to 10) was “no protection”.
